In paper PMC6661766, “Antimicrobial, antioxidant and cytotoxic evaluation of diazenyl chalcones along with insights to mechanism of interaction by molecular docking studies” (BMC Chemistry, 2019):
≈ marks a conversion by molar mass, not a printed value.

Key:
B. subtilis = experiment: Antimicrobial serial tube dilution, MIC and MBC; format: cell-based, Bacillus subtilis MTCC 2063; settings: for B. subtilis MIC: 24 h at 37 ± 2 °C; for MIC / MBC: Bacillus subtilis; for MIC: 24 h, read-out: B. subtilis MIC; for MBC: read-out: B. subtilis MBC
Method: (§1) The synthesized diazenyl chalcones (C18 to C27) and controls (dyes A and E, and chalcone) were assessed for their antimicrobial activity by estimation of MIC and MBC/MFC values. […] The stock solutions of the test compounds and standard drugs having a concentration of 1000 µg ml^−1 were prepared by dissolving the used compounds in DMSO. The nutrient broth/Sabouraud dextrose broth was used for the serial dilution of the test compounds and referenced drugs for bacterial and fungal cultures, respectively. […] The size of the final inoculum in each test tube was taken as 5 × 10^5 CFU ml^−1. The incubation of the test and standard compounds of varying concentrations was done for 24 h at 37 ± 2 °C (bacterial culture) and for 48 h at 37 ± 2 °C (C. albicans) and for 7 d at 25 ± 2 °C (A. fumigatus). The diazenyl chalcones (C18–C27), were further evaluated for their bactericidal/fungicidal activity by estimation of MBC/MFC values. […] For proper mixing of culture media, the plates were shaken gently followed by incubation at the predefined temperature and time as stated earlier, followed by the visual inspection of the plates for signs of microbial growth.

A. fumigatus = experiment: Antimicrobial serial tube dilution, MIC and MFC; format: cell-based, Aspergillus fumigatus MTCC 2584; settings: for A. fumigatus MIC: 7 d at 25 ± 2 °C; for MIC / MFC: Aspergillus fumigatus; for MIC: 168 h, read-out: A. fumigatus MIC; for MFC: read-out: A. fumigatus MFC
Method: as §1

C. albicans = experiment: Antimicrobial serial tube dilution, MIC and MFC; format: cell-based, Candida albicans MTCC 227; settings: for C. albicans MIC: 48 h at 37 ± 2 °C; for MIC / MFC: Candida albicans; for MIC: 48 h, read-out: C. albicans MIC; for MFC: read-out: C. albicans MFC
Method: as §1

S. typhi = experiment: Antimicrobial serial tube dilution, MIC and MBC; format: cell-based, Salmonella typhi MTCC 3216; settings: for S. typhi MIC: 24 h at 37 ± 2 °C; for MIC / MBC: Salmonella enterica, TYPHI; for MIC: 24 h, read-out: S. typhi MIC; for MBC: read-out: S. typhi MBC
Method: as §1

S. aureus = experiment: Antimicrobial serial tube dilution, MIC and MBC; format: cell-based, Staphylococcus aureus MTCC 2901; settings: for S. aureus MIC: 24 h at 37 ± 2 °C; for MIC / MBC: Staphylococcus aureus; for MIC: 24 h, read-out: S. aureus MIC; for MBC: read-out: S. aureus MBC
Method: as §1

B. cereus = experiment: Antimicrobial serial tube dilution, MIC and MBC; format: cell-based, Bacillus cereus MTCC 1305; settings: for B. cereus MIC: 24 h at 37 ± 2 °C; for MIC / MBC: Bacillus cereus; for MIC: 24 h, read-out: B. cereus MIC; for MBC: read-out: B. cereus MBC
Method: as §1

E. coli = experiment: Antimicrobial serial tube dilution, MIC and MBC; format: cell-based, Escherichia coli MTCC 1652; settings: for E. coli MIC: 24 h at 37 ± 2 °C; for MIC / MBC: Escherichia coli; for MIC: 24 h, read-out: E. coli MIC, 24 h at 37 ± 2 °C; for MBC: read-out: E. coli MBC
Method: as §1

[1] = DPPH scavenging antioxidant assay
Method: The derivatives (C18–C27) were assessed for their antioxidant potential in the presence of the stable free radical DPPH using ascorbic acid as the standard compound [36, 37]. […] The total volume of 200 µl was used in each well for each concentration of the test and standard drug containing 0.004 µg DPPH. The assay was performed in triplicate at all concentrations of each sample and standard compound. DPPH solutions in methanol at the same concentration without test drugs were used as the control. Each concentration of the sample and standard has a different blank. To minimize evaporation, the plate was covered with the lid and wrapped in aluminium foil and kept in the dark place in order to protect the DPPH radical from degradation by light and left for 30 min. After 30 min of incubation, the plate was kept in ELISA reader to measure the absorbance values at 517 nm. The experiment was performed in triplicate. The antioxidant activity of each sample was then calculated as per cent inhibition of DPPH according to the following equation: %decolourationofDPPH=ControlAbs-SampleAbs×100/ControlAbs

Row | SMILES | E. coli MIC (E. coli) | IC50 DPPH [1] | % inhibition of DPPH ([1]; 1.56 µg ml^−1) | % inhibition of DPPH ([1]; 3.12 µg ml^−1) | % inhibition of DPPH ([1]; 6.25 µg ml^−1) | % inhibition of DPPH ([1]; 12.5 µg ml^−1) | % inhibition of DPPH ([1]; 25 µg ml^−1) | % inhibition of DPPH ([1]; 50 µg ml^−1) | % inhibition of DPPH ([1]; 100 µg ml^−1) | MIC (B. subtilis) | MBC (B. subtilis) | MIC (A. fumigatus) | MFC (A. fumigatus) | MIC (C. albicans) | MFC (C. albicans) | MIC (S. typhi) | MBC (S. typhi) | MIC (S. aureus) | MBC (S. aureus) | MIC (B. cereus) | further results
1 | O=C(/C=C/c1ccc(Cl)cc1Cl)c1ccc(O)cc1 [Chalcone, (E)-3-(2,4-dichlorophenyl)-1-(4-hydroxyphenyl)prop-2-en-1-one] | 15.62 µg/mL | 76.77 µg/mL (≈ 262 µM) | 6.54% | 8.12% | 10.76% | 16.90% | 21.57% | 34.56% | 51.80% | – | – | – | – | – | – | – | – | – | – | – | B. subtilis MBC (B. subtilis): 62.5 µg/mL; B. subtilis MIC (B. subtilis): 62.5 µg/mL; A. fumigatus MFC (A. fumigatus): 125 µg/mL; A. fumigatus MIC (A. fumigatus): 125 µg/mL; C. albicans MFC (C. albicans): 125 µg/mL; C. albicans MIC (C. albicans): 125 µg/mL; S. typhi MBC (S. typhi): 62.5 µg/mL; S. typhi MIC (S. typhi): 31.25 µg/mL; S. aureus MBC (S. aureus): 62.5 µg/mL; S. aureus MIC (S. aureus): 31.25 µg/mL; B. cereus MBC (B. cereus): 62.5 µg/mL; B. cereus MIC (B. cereus): 62.5 µg/mL; E. coli MBC (E. coli): 31.25 µg/mL
2 | O=C(/C=C/c1ccc(Cl)cc1Cl)c1ccc(O)c(N=Nc2cccc(Cl)c2Cl)c1 [Compound C-18, (2E)-3-(2,4-Dichlorophenyl)-1-(3-((2,3-dichlorophenyl)diazenyl)-4-hydroxyphenyl)prop-2-en-1-one] | 15.62 µg/mL | > 100 µg/mL | 7.21% | 8.76% | 9.37% | 12.35% | 15.68% | 21.79% | 31.98% | 125 µg/mL (≈ 268 µM) | 125 µg/mL (≈ 268 µM) | 125 µg/mL (≈ 268 µM) | 125 µg/mL (≈ 268 µM) | 125 µg/mL (≈ 268 µM) | 125 µg/mL (≈ 268 µM) | 31.2 µg/mL (≈ 67 µM) | 125 µg/mL (≈ 268 µM) | 31.2 µg/mL (≈ 67 µM) | 125 µg/mL (≈ 268 µM) | 31.2 µg/mL (≈ 67 µM) | MBC (B. cereus): 125 µg/mL (≈ 268 µM); MIC (E. coli): 7.81 to 15.6 µg/mL (≈ 16.8 to 33.5 µM); MBC (E. coli): 62.5 µg/mL (≈ 134 µM); melting point: 110 to 112 °C
3 | O=C(/C=C\c1ccccc1[N+](=O)[O-])c1cccc(N=Nc2cccc(Cl)c2Cl)c1O [Compound C-20, (2Z)-1-(3-((2,3-Dichlorophenyl)diazenyl)-2-hydroxyphenyl)-3-(2-nitrophenyl)prop-2-en-1-one] | – | > 100 µg/mL | 8.15% | 9.87% | 10.51% | 14.32% | 18.96% | 20.76% | 29.39% | 62.5 µg/mL (≈ 141 µM) | 125 µg/mL (≈ 283 µM) | 125 µg/mL (≈ 283 µM) | 125 µg/mL (≈ 283 µM) | 125 µg/mL (≈ 283 µM) | 250 µg/mL (≈ 565 µM) | 125 µg/mL (≈ 283 µM) | 125 µg/mL (≈ 283 µM) | 125 µg/mL (≈ 283 µM) | 125 µg/mL (≈ 283 µM) | 125 µg/mL (≈ 283 µM) | MBC (B. cereus): 125 µg/mL (≈ 283 µM); MIC (E. coli): 125 µg/mL (≈ 283 µM); MBC (E. coli): 250 µg/mL (≈ 565 µM); melting point: 105 to 107 °C
4 | O=C(/C=C\c1cc(Br)ccc1O)c1ccc(N=Nc2c(O)cccc2O)cc1 [Compound C-21, (2Z)-3-(5-Bromo-2-hydroxyphenyl)-1-(4-((2,6-dihydroxyphenyl)diazenyl)phenyl)prop-2-en-1-one] | 15.62 µg/mL | – | 8.71% | 12.99% | 20.98% | 25.71% | 30.75% | 35.78% | 39.56% | 31.2 µg/mL (≈ 71.1 µM) | 62.5 µg/mL (≈ 142 µM) | 125 µg/mL (≈ 285 µM) | 125 µg/mL (≈ 285 µM) | 62.5 µg/mL (≈ 142 µM) | 125 µg/mL (≈ 285 µM) | 31.2 µg/mL (≈ 71.1 µM) | 125 µg/mL (≈ 285 µM) | 125 µg/mL (≈ 285 µM) | 125 µg/mL (≈ 285 µM) | 62.5 µg/mL (≈ 142 µM) | MBC (B. cereus): 62.5 µg/mL (≈ 142 µM); MIC (E. coli): 7.81 to 15.6 µg/mL (≈ 17.8 to 35.6 µM); MBC (E. coli): 31.2 µg/mL (≈ 71.1 µM); melting point: 155 to 157 °C
5 | O=C(/C=C\c1cccc(Br)c1)c1cccc(N=Nc2cc(Cl)ccc2Cl)c1O [Compound C-26, (2Z)-3-(3-Bromophenyl)-1-(3-((2,5-dichlorophenyl)diazenyl)-2-hydroxyphenyl)prop-2-en-1-one] | 62.5 µg/mL | – | 5.72% | 7.91% | 11.90% | 14.04% | 21.98% | 24.65% | 29.62% | – | – | – | – | – | – | – | – | – | – | – | B. subtilis MBC (B. subtilis): 62.5 µg/mL; B. subtilis MIC (B. subtilis): 62.5 µg/mL; A. fumigatus MFC (A. fumigatus): 125 µg/mL; A. fumigatus MIC (A. fumigatus): 125 µg/mL; C. albicans MFC (C. albicans): 125 µg/mL; C. albicans MIC (C. albicans): 125 µg/mL; S. typhi MBC (S. typhi): 62.5 µg/mL; S. typhi MIC (S. typhi): 15.62 µg/mL; S. aureus MBC (S. aureus): 31.25 µg/mL; S. aureus MIC (S. aureus): 7.81 µg/mL; B. cereus MBC (B. cereus): 250 µg/mL; B. cereus MIC (B. cereus): 250 µg/mL; E. coli MBC (E. coli): 125 µg/mL; log IC50 DPPH ([1]; Fig. 1): 1.349
